{"source": "patent US3956279A", "about": "“Crystalline pivaloyloxymethyl d(-)-α-aminobenzylpenicillinate” (priority 1973, dated 1976)", "key": {"[1]": {"settings": "salts of pivampicillin, cited from earlier work"}, "[2]": {"experiment": "Solubilities at room temperature (about 25°C) in various solvents", "assay_type": "physicochemical"}, "[3]": {"experiment": "Density of crystalline pivampicillin compared with its salts", "assay_type": "physicochemical", "settings": "crystalline pivampicillin versus its salts"}, "[4]": {"experiment": "Stability of crystalline pivampicillin and of the preparation of Example 20 (chemical analyses)", "assay_type": "physicochemical", "settings": "crystalline pivampicillin in medical preparations", "protocol": "Thus the preparation, the formulation of which is described in Example 20 of the present Specification, had according to chemical analyses a stability corresponding to a decrease in activity in the order of 5% over a 2 years period when stored at 20°C and a relative humidity of 40%."}, "[5]": {"set-up": "species or system healthy volunteers (adults)", "settings": "human, in vivo", "protocol": "The above preparation was given to five healthy volunteers (adults), and as will appear from Table II below, gave rise to high serum concentrations and a high urinary recovery, as expressed below in terms of serum concentrations and urinary excretion, respectively.\nSERUM CONCENTRATIONS (mcg per ml) AND URINARY EXCRETION\n(in per cent of dose administered) OF AMPICILLIN IN FIVE\nHEALTHY VOLUNTEERS (ADULTS) FOLLOWING ORAL ADMINISTRATION\nOF 10 ml OF \"PIVAMPICILLIN ORAL SUSPENSION\" CONTAINING\nPIVAMPICILLIN BASE CORRESPONDING TO 250 mg AMPICILLIN"}, "[6]": {"settings": "chemical substance pivampicillin, under certain conditions; cited from earlier work"}}, "note": "Counter-ions that a name gives are not always drawn. Like-named read-outs stand apart in the source and are kept apart here."}
{"smiles": "CC(C)(C)C(=O)OCOC(=O)[C@@H]1N2C(=O)[C@@H](NC(=O)[C@H](N)c3ccccc3)[C@H]2SC1(C)C", "note": "[hydrochloride, pivaloyloxymethyl D(-)-α-aminobenzylpenicillinate, hydrochloride]", "values": [{"measurement": "Solubility of salt in water (in words)", "setting": "[1]; hydrochloride", "result": "readily soluble in water"}]}
{"smiles": "CC(C)(C)C(=O)OCOC(=O)[C@@H]1N2C(=O)[C@@H](NC(=O)[C@H](N)c3ccccc3)[C@H]2SC1(C)C", "values": [{"measurement": "Solubility of salt in water (in words)", "setting": "[1]", "result": "slightly soluble in water"}]}
{"smiles": "CC(C)(C)C(=O)OCOC(=O)[C@@H]1N2C(=O)[C@@H](NC(=O)[C@H](N)c3ccccc3)[C@H]2SC1(C)C", "note": "[pivampicillin, pivaloyloxymethyl D(-)-α-aminobenzylpenicillinate]", "values": [{"measurement": "Solubility in water (in words)", "setting": "[2]; crystalline pivampicillin", "result": "extremely low solubility in water"}, {"measurement": "Stability in methanol", "setting": "[2]; methanol, room temperature (about 25°C)", "result": "destruction"}, {"measurement": "solubility", "setting": "[2]; organic solvent or mixture, acetonitrile, room temperature (about 25°C), read-out: Solubility in acetonitrile", "result": 450000, "unit": "µg/mL"}, {"measurement": "solubility", "setting": "[2]; organic solvent or mixture, cyclohexane, room temperature (about 25°C), read-out: Solubility in cyclohexane", "result": 150, "unit": "µg/mL"}, {"measurement": "solubility", "setting": "[2]; organic solvent or mixture, ethanol, room temperature (about 25°C), read-out: Solubility in ethanol", "result": 40000, "unit": "µg/mL"}, {"measurement": "solubility", "setting": "[2]; organic solvent or mixture, ether, room temperature (about 25°C), read-out: Solubility in ether", "result": 10000, "unit": "µg/mL"}, {"measurement": "solubility", "setting": "[2]; organic solvent or mixture, isopropanol, room temperature (about 25°C), read-out: Solubility in isopropanol", "result": 12000, "unit": "µg/mL"}, {"measurement": "solubility", "setting": "[2]; organic solvent or mixture, isopropylether, room temperature (about 25°C), read-out: Solubility in isopropylether", "result": 1000, "unit": "µg/mL"}, {"measurement": "solubility", "setting": "[2]; organic solvent or mixture, light petroleum (bp. 60-80°C), room temperature (about 25°C), read-out: Solubility in light petroleum", "result": 20, "unit": "µg/mL"}, {"measurement": "solubility", "setting": "[2]; organic solvent or mixture, methanol, room temperature (about 25°C), (destruction), read-out: Solubility in methanol", "result": "> 500000", "unit": "µg/mL"}, {"measurement": "solubility", "setting": "[2]; water, room temperature (about 25°C), read-out: Solubility in water", "result": 100, "unit": "µg/mL"}, {"measurement": "Density", "setting": "[3]", "result": "higher density than its salts"}, {"measurement": "Stability (in words)", "setting": "[4]", "result": "stable compound"}, {"measurement": "Absorption (in words)", "setting": "[5]", "result": "excellent absorption"}, {"measurement": "Tendency to polymerize", "setting": "[6]", "result": "apt to polymerize"}]}
